Reference: US20060099235A1, “Medical devices and compositions useful for treating or inhibiting restenosis” (Medtronic Vascular, Inc., priority 2004, published 2006)

Columns and labels:
[1] = tested on: human coronary artery smooth muscle cells (hCASMCs); assay: CellTiter-Glo Luminescent Cell Viability (proliferation) assay, 3-day exposure; format: cell-based
Method: (§1) Leptomycin B's anti-proliferative efficacy was tested at different concentrations (0.01 nM, 0.1 nM, 1.0 nM, 10.0 nM, 100 nM and 1000 nM) using a three day exposure to hCASMC. The same experiment was performed twice at two separate times to ascertain leptomycin's effect on cell proliferation using a cell viability assay, and the cell phenotype through a qualitative observation of cell morphology following the 3-day exposure to leptomycin B.
The CellTiter-Glo® Luminescent Cell Viability Assay (Promega Corporation, Madison, Wis.) is a method of determining the number of viable cells in culture based on the quantitation of ATP, as an indicator of metabolically active cells (proliferating). A single reagent is added to cells directly in culture, this reagent lyses the cells and provides the luciferase enzyme that reacts with the liberated ATP to create a luminescent signal.
Twenty-four well plates were seeded with hCASMC at 5×10^3 cells per well (n=3) using methods know to those skilled in the art of cell culture. For example and not intended as a limitation: Materials • 1. Human coronary smooth muscles cells (HCASMC) are obtained from Clonetics, a division of Cambrex, Inc. • 2. HCASMC basal media, supplied by Clonetics and supplemented with fetal bovine serum, insulin, hFGF-B (human fibroblast growth factor) hEGF (human epidermal growth factor). • 3. Leptomycin B was purchased from LC Laboratories. Wobum, Mass., USA catalogue number L-6100 • 4. Absolute methanol • 5. Twenty-four well polystyrene tissue culture plates
Dilutions of the drug were made in serum-free cell culture media from the stock solution. A volume of 100 μL of each dilution was added to designated wells. […]
The CellTiter-Glo® Luminescent Cell Viability Assay (Promega Corporation, Madison, Wis.) was performed to assess percent viability. The CellTiter-Glo® Luminescent Cell Viability Assay is a homogeneous method of determining the number of viable cells in culture based on quantitation of the ATP present, which signals the presence of metabolically active cells. […]

[2] = tested on: human coronary artery smooth muscle cells (hCASMCs); assay: Microscopic evaluation of cell morphology after 3-day exposure; format: cell-based; details: hCASMC, 3 days
Method: as §1
The evaluation of cell phenotype on drug-treated wells was performed by optical microscopy observation and capture of representative images at 200× (total magnification). Microscopic evaluation and pictures were performed before the proliferation assay was done on the 24-well drug-treated plate.
Representative microphotographs (See FIGS. 8-14) of cells exposed to different concentrations of leptomycin B for a period of three days. HCASMCs cultured in the absence of the drug (FIG. 8) reached a ˜90% confluency with the expected healthy phenotype at three days (duration of the assay), providing an adequate control.

## CCC(=C/[C@H](C)C/C=C/C(C)=C/[C@@H](C)C(=O)[C@@H](C)[C@H](O)[C@@H](C)C/C(C)=C/C(=O)O)/C=C/[C@@H]1OC(=O)C=C[C@@H]1C [leptomycin B, 2,10,12,16,18-nonadecapentaenoic acid]
[1]; 0.01-1000 nM, two trials (FIGS. 6 and 7)
  effect on human coronary artery smooth muscle cell proliferation: inhibitory effect
[1]; concentrations as low as
  concentration showing inhibitory effect on hCASMC proliferation in vitro: ≥ 1 nM
[1]; hCASMC
  nature of the effect (cytostatic vs cytotoxic): predominantly cytostatic rather than cytotoxic
[2]; 0.01-1000 nM
  microscopic signs of cytotoxicity: No microscopic signs of cytotoxicity
[2]; 200x optical microscopy, control ~90% confluency
  level of confluence: decreased level of confluence
